# Experimental data published in ChEMBL document CHEMBL3991601, “The target landscape of clinical kinase drugs” (Science, 2017).
# Active and inactive are the calls of the source.
# Target: Macrophage-stimulating protein receptor (Homo sapiens, UniProt Q04912)
# Also: in the data inactive means no Kd found up to 30 µM.
# Sequence of Macrophage-stimulating protein receptor (Q04912 25-304 limits assumed): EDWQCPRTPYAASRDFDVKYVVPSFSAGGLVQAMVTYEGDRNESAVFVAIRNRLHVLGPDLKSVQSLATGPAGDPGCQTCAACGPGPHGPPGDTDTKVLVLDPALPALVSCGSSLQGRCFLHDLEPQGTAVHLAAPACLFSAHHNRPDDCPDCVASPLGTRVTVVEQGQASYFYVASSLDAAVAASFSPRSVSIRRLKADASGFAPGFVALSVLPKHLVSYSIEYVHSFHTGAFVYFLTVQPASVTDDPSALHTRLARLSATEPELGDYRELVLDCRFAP
# Sequence of Macrophage-stimulating protein receptor (Q04912 310-1400 limits assumed): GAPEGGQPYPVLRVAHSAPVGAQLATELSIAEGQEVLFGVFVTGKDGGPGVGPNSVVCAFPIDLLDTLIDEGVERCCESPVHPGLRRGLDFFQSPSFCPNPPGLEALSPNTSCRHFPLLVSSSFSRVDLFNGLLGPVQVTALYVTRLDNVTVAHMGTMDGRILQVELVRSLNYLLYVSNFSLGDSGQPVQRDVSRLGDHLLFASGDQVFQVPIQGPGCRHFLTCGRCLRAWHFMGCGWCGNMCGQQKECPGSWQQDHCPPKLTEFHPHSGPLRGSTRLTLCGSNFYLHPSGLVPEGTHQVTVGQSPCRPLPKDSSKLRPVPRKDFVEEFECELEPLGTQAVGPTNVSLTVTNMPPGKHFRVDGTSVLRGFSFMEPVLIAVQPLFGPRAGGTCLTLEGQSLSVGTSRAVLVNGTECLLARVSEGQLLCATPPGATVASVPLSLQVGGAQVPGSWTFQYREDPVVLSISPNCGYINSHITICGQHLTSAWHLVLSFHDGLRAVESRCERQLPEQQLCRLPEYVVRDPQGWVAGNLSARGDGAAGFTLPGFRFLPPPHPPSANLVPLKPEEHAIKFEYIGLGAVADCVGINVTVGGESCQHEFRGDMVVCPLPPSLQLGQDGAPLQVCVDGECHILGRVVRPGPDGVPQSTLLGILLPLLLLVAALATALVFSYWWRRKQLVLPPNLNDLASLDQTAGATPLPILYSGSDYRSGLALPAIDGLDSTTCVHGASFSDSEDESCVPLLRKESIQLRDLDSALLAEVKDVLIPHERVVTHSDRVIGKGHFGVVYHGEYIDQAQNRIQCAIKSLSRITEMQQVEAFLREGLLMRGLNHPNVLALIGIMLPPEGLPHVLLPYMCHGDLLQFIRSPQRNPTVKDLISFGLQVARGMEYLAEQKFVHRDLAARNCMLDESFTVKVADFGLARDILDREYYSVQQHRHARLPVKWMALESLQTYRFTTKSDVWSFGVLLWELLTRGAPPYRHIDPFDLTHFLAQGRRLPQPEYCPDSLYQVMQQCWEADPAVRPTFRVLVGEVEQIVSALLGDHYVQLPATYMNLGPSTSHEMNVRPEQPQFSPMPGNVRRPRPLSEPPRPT
row,Structure (SMILES),Kd
1,Cn1ncc(Cl)c1-c1cc(C(=O)N[C@H](CN)Cc2cccc(F)c2)sc1Cl [AFURESERTIB],> 30 µM (inactive)
2,COc1cc(N2CCC(N3CCN(C)CC3)CC2)ccc1Nc1ncnc(Nc2ccccc2S(=O)(=O)C(C)C)n1 [ASP-3026],> 30 µM (inactive)
3,CNS(=O)(=O)Nc1nccc(Cc2c(C)c3ccc(Oc4ncccn4)cc3oc2=O)c1F [AVUTOMETINIB],> 30 µM (inactive)
4,COc1cc(CCc2cc(NC(=O)c3ccc(N4C[C@@H](C)N[C@@H](C)C4)cc3)n[nH]2)cc(OC)c1 [AZD-4547],> 30 µM (inactive)
5,Cc1cc([C@@H](C)Nc2ccccc2C(=O)O)c2nc(N3CCOCC3)cc(=O)n2c1 [AZD-6482],> 30 µM (inactive)

# Target: T1, Dual specificity mitogen-activated protein kinase kinase 6 (Homo sapiens, UniProt P52564)
# T1 sequence (P52564 whole entry): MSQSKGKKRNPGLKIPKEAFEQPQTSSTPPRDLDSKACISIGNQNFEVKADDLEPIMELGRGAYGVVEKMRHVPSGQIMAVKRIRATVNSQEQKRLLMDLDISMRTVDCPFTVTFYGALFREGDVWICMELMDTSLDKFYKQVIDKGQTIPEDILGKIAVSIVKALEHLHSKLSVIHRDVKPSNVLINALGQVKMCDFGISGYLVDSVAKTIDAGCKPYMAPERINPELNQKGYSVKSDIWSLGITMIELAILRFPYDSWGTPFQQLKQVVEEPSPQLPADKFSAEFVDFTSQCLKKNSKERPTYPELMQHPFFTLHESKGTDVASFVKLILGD
row,Structure (SMILES),Kd
1,Cn1ncc(Cl)c1-c1cc(C(=O)N[C@H](CN)Cc2cccc(F)c2)sc1Cl [AFURESERTIB],> 30 µM (inactive)
2,COc1cc(N2CCC(N3CCN(C)CC3)CC2)ccc1Nc1ncnc(Nc2ccccc2S(=O)(=O)C(C)C)n1 [ASP-3026],> 30 µM (inactive)
3,CNS(=O)(=O)Nc1nccc(Cc2c(C)c3ccc(Oc4ncccn4)cc3oc2=O)c1F [AVUTOMETINIB],> 30 µM (inactive)
4,COc1cc(CCc2cc(NC(=O)c3ccc(N4C[C@@H](C)N[C@@H](C)C4)cc3)n[nH]2)cc(OC)c1 [AZD-4547],> 30 µM (inactive)
5,Cc1cc([C@@H](C)Nc2ccccc2C(=O)O)c2nc(N3CCOCC3)cc(=O)n2c1 [AZD-6482],> 30 µM (inactive)

# Target: T2, Peroxisomal acyl-coenzyme A oxidase 1 (Homo sapiens, UniProt Q15067)
# T2 sequence (Q15067 whole entry): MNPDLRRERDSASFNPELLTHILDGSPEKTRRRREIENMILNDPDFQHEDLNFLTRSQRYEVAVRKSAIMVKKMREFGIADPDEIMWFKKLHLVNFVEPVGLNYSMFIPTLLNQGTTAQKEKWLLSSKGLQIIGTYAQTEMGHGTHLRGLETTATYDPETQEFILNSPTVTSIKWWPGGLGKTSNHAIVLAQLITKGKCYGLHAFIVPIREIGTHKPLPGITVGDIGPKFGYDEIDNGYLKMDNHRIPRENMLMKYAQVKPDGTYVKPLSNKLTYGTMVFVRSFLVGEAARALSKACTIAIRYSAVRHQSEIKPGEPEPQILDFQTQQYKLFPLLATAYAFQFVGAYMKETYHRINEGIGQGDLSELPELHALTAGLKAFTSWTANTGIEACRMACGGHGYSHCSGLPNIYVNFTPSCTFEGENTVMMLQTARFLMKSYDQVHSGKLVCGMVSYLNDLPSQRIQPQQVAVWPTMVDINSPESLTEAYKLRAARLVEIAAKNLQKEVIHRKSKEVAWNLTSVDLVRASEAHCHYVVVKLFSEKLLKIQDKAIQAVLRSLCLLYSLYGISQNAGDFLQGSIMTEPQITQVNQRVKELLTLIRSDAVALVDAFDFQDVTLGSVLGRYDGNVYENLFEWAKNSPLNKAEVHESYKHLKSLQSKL
row,Structure (SMILES),Kd
1,Cn1ncc(Cl)c1-c1cc(C(=O)N[C@H](CN)Cc2cccc(F)c2)sc1Cl [AFURESERTIB],> 30 µM (inactive)
2,COc1cc(N2CCC(N3CCN(C)CC3)CC2)ccc1Nc1ncnc(Nc2ccccc2S(=O)(=O)C(C)C)n1 [ASP-3026],> 30 µM (inactive)
3,CNS(=O)(=O)Nc1nccc(Cc2c(C)c3ccc(Oc4ncccn4)cc3oc2=O)c1F [AVUTOMETINIB],> 30 µM (inactive)
4,COc1cc(CCc2cc(NC(=O)c3ccc(N4C[C@@H](C)N[C@@H](C)C4)cc3)n[nH]2)cc(OC)c1 [AZD-4547],> 30 µM (inactive)
5,Cc1cc([C@@H](C)Nc2ccccc2C(=O)O)c2nc(N3CCOCC3)cc(=O)n2c1 [AZD-6482],> 30 µM (inactive)

# Target: MAP/microtubule affinity-regulating kinase 3 (Homo sapiens, UniProt P27448)
# Sequence (P27448 whole entry): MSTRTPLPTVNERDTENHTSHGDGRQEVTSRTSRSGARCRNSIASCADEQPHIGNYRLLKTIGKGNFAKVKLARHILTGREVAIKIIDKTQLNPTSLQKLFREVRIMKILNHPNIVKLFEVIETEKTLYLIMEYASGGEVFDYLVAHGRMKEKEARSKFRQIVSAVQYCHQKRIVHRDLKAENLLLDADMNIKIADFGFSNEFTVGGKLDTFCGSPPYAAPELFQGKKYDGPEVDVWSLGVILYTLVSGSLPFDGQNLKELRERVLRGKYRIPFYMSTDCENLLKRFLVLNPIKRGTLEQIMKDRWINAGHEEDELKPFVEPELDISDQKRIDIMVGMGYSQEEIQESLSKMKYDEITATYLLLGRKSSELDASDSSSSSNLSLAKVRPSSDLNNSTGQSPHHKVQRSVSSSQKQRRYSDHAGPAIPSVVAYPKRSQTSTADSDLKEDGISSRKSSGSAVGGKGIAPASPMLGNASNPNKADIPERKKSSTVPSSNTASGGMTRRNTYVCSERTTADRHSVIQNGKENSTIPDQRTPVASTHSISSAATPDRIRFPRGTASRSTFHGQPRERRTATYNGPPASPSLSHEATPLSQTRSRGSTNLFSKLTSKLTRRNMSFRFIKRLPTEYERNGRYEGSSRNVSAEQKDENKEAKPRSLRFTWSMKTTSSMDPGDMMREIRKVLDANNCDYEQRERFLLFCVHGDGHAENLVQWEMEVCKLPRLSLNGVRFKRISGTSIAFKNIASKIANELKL
row,Structure (SMILES),Kd
1,Cn1ncc(Cl)c1-c1cc(C(=O)N[C@H](CN)Cc2cccc(F)c2)sc1Cl [AFURESERTIB],> 30 µM (inactive)
2,COc1cc(N2CCC(N3CCN(C)CC3)CC2)ccc1Nc1ncnc(Nc2ccccc2S(=O)(=O)C(C)C)n1 [ASP-3026],> 30 µM (inactive)
3,CNS(=O)(=O)Nc1nccc(Cc2c(C)c3ccc(Oc4ncccn4)cc3oc2=O)c1F [AVUTOMETINIB],> 30 µM (inactive)
4,COc1cc(CCc2cc(NC(=O)c3ccc(N4C[C@@H](C)N[C@@H](C)C4)cc3)n[nH]2)cc(OC)c1 [AZD-4547],9.02 µM (active)
5,Cc1cc([C@@H](C)Nc2ccccc2C(=O)O)c2nc(N3CCOCC3)cc(=O)n2c1 [AZD-6482],> 30 µM (inactive)

# Target: T3, Dual specificity mitogen-activated protein kinase kinase 3 (Homo sapiens, UniProt P46734)
# T3 sequence (P46734 whole entry): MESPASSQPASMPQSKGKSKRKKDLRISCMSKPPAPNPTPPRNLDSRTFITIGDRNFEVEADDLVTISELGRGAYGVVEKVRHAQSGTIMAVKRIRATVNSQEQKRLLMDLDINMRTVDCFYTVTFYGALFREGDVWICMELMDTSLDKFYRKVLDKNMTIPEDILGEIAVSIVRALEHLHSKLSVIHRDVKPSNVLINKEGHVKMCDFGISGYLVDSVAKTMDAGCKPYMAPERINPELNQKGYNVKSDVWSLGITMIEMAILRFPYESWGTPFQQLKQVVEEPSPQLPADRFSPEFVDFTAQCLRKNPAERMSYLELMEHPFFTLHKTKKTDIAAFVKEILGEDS
row,Structure (SMILES),Kd
1,Cn1ncc(Cl)c1-c1cc(C(=O)N[C@H](CN)Cc2cccc(F)c2)sc1Cl [AFURESERTIB],> 30 µM (inactive)
2,COc1cc(N2CCC(N3CCN(C)CC3)CC2)ccc1Nc1ncnc(Nc2ccccc2S(=O)(=O)C(C)C)n1 [ASP-3026],> 30 µM (inactive)
3,CNS(=O)(=O)Nc1nccc(Cc2c(C)c3ccc(Oc4ncccn4)cc3oc2=O)c1F [AVUTOMETINIB],> 30 µM (inactive)
4,COc1cc(CCc2cc(NC(=O)c3ccc(N4C[C@@H](C)N[C@@H](C)C4)cc3)n[nH]2)cc(OC)c1 [AZD-4547],> 30 µM (inactive)
5,Cc1cc([C@@H](C)Nc2ccccc2C(=O)O)c2nc(N3CCOCC3)cc(=O)n2c1 [AZD-6482],> 30 µM (inactive)

# Target: T4, Ras-related protein Rab-10 (Homo sapiens, UniProt P61026)
# T4 sequence (P61026 whole entry): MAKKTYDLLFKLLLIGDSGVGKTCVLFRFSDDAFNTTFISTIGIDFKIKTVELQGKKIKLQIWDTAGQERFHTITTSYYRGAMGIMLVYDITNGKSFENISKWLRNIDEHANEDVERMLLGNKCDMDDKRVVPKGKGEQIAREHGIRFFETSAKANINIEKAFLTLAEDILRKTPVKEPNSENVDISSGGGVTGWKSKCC
row,Structure (SMILES),Kd
1,Cn1ncc(Cl)c1-c1cc(C(=O)N[C@H](CN)Cc2cccc(F)c2)sc1Cl [AFURESERTIB],> 30 µM (inactive)
2,COc1cc(N2CCC(N3CCN(C)CC3)CC2)ccc1Nc1ncnc(Nc2ccccc2S(=O)(=O)C(C)C)n1 [ASP-3026],> 30 µM (inactive)
3,CNS(=O)(=O)Nc1nccc(Cc2c(C)c3ccc(Oc4ncccn4)cc3oc2=O)c1F [AVUTOMETINIB],> 30 µM (inactive)
4,COc1cc(CCc2cc(NC(=O)c3ccc(N4C[C@@H](C)N[C@@H](C)C4)cc3)n[nH]2)cc(OC)c1 [AZD-4547],> 30 µM (inactive)
5,Cc1cc([C@@H](C)Nc2ccccc2C(=O)O)c2nc(N3CCOCC3)cc(=O)n2c1 [AZD-6482],> 30 µM (inactive)

# Target: T5, MAP/microtubule affinity-regulating kinase 4 (Homo sapiens, UniProt Q96L34)
# T5 sequence (Q96L34 whole entry): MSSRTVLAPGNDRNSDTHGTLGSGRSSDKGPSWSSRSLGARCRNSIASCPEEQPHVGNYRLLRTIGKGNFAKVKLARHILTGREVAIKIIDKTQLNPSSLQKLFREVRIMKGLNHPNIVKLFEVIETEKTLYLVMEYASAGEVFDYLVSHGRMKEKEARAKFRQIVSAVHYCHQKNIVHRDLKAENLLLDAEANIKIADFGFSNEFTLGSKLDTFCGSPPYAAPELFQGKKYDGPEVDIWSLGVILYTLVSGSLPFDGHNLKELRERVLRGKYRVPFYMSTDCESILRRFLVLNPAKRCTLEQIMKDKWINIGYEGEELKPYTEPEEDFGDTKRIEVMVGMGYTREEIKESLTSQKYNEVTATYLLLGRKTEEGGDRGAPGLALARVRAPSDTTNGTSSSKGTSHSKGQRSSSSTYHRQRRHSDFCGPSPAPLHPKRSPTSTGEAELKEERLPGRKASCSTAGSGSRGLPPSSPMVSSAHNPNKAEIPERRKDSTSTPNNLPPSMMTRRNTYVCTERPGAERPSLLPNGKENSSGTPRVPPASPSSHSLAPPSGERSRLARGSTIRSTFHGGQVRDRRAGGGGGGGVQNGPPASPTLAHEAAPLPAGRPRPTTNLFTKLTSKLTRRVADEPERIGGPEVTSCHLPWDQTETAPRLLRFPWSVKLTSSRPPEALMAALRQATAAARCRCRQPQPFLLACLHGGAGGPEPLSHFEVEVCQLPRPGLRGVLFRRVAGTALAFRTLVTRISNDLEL
row,Structure (SMILES),Kd
1,Cn1ncc(Cl)c1-c1cc(C(=O)N[C@H](CN)Cc2cccc(F)c2)sc1Cl [AFURESERTIB],> 30 µM (inactive)
2,COc1cc(N2CCC(N3CCN(C)CC3)CC2)ccc1Nc1ncnc(Nc2ccccc2S(=O)(=O)C(C)C)n1 [ASP-3026],> 30 µM (inactive)
3,CNS(=O)(=O)Nc1nccc(Cc2c(C)c3ccc(Oc4ncccn4)cc3oc2=O)c1F [AVUTOMETINIB],> 30 µM (inactive)
4,COc1cc(CCc2cc(NC(=O)c3ccc(N4C[C@@H](C)N[C@@H](C)C4)cc3)n[nH]2)cc(OC)c1 [AZD-4547],> 30 µM (inactive)
5,Cc1cc([C@@H](C)Nc2ccccc2C(=O)O)c2nc(N3CCOCC3)cc(=O)n2c1 [AZD-6482],> 30 µM (inactive)
